Assays:
[1] = system: human neuroblastoma cells (SH-SY5Y); experiment: Viability of SH-SY5Y cells after auranofin (AuF) challenge, methylene blue staining; type: cell-based; settings: SH-SY5Y pre-treated with 5 µM AuF 30 min, washed, compound added, viability 24 h later
Method: Viability of cells pre-treated with 5 µM AuF for 30 min, washed and later exposed to increasing concentrations of SD-444, was determined 24 h later.
A) The anti-apoptotic activity of SD-444 was tested on human neuronal cells SH-SY5Y. The cells were challenged by auranofin (AuF) that induces cellular stress by selectively blocking the thioredoxin reductase activity.
SH-SY5Y cells were plated on 96-well plates and treated with AuF in different concentrations for 30 min. Then the cells were washed with PBS and treated as indicated. Twenty-four hours later, the cells were fixed with glutaraldehyde in final concentration of 0.5% for 10 min. Cells were washed 3 times with DDW dried overnight, and washed once with borate buffer (0.1 M, pH 8.5). The fixed cells were stained with 200 µl of 1% methylene blue dissolved in borate buffer for 1 h. After extensive washing and drying, the color was extracted with 200 µl of 0.1 M HCl for 1 h at 37° C. and absorbance was read in spectrophotometer at 630 nm.

PC12 cells = experiment: Phase microscopy of AuF-induced morphological changes in PC12 cells; type: cell-based; settings: 2 µM AuF 30 min, washed, 150 µM SDA, 37° C., 4 hrs; listed as SDA
Method: PC12 cells were treated with AuF with or without SD-444. Morphological changes were visualized 4 hr later (magnification x200).
(FIG. 7A) Control untreated PC12 cells (FIG. 7B). PC12 cells were treated with AuF (2 µM; 30 min) lose their morphology and become rounded, as compared to untreated cells. […] Cells were treated with AuF (2 µM) for 30 min, washed and then SDA was added at 25 µM or 100 µM. Cells were visualized 4 hr later (magnification, 100 × and 400 x).
C) Phase microscopy studies: The ability of SD-444 to rescue cells from oxidative stress was tested by exposing the PC12 to 2 µM auranofin for 30 min, and after washing incubated with 250 µM SD-444 at 37° C. for additional 4 hrs.
B) Phase microscopy studies: The ability of SDA to rescue the cells from oxidative stress was tested by exposing the PC12 to auranofin 2 µM for 30 min with or without 150 µM SDA. AuF was washed after 30 min and 150 µM SDA was added and allowed to incubate at 37° C. for additional 4 hrs.

## CC(=O)NC(CS)C(=O)NC(Cc1cccc(O)c1O)C(N)=O (centres unmarked) [SDA-341, Acetyle-Cys-2,3 dihydroxyphenylalanine-amide]
[1]
  neuronal cell-viability after AuF: increase viability
PC12 cells
  morphology of AuF-treated PC12 cells: normal morphology

— patent US20230192764A1, “NOVEL DOPAMINE PRECURSORS” (Yissum Research Development Company of the Hebrew …, priority 2018, published 2023)
